Results on 23 molecules are retold here after patent US10143681B2, “Factor XIa inhibitors” (MERCK SHARP & DOHME CORP., priority 2016, dated 2018).

The assay addresses human Factor XIa (Homo sapiens (Human), UniProt P03951). The assay is described as follows: Factor XIa Assay. The conditions noted are these: for IC50: human Factor XIa 0.04 nM, 30 min pre-incubation at 25° C., substrate GPR-AFC, read-out: FXIa IC50; for inhibition at 1 µM: @ 1000 nM compound, read-out: FXIa % Inh. @ 1000 nM. It is filed as biochemical. The procedure:
The effectiveness of a compound of the present invention as an inhibitor of Coagulation Factor XIa can be determined using a relevant purified serine protease, and an appropriate synthetic substrate. The rate of hydrolysis of the chromogenic or fluorogenic substrate by the relevant serine protease was measured both in the absence and presence of compounds of the present invention. Assays were conducted at room temperature or at 37° C. […] A decrease in the rate of fluorescence change in the presence of inhibitor is indicative of enzyme inhibition. Such methods are known to one skilled in the art. The results of this assay are expressed as the half-maximal inhibitory concentrations (IC50), or the inhibitory constant, Ki.
Compounds were pre-incubated for 30 minutes at 25° C. with human (0.04 nM) Factor XIa in 50 mM HEPES buffer with 150 mM sodium chloride, 5 mM calcium chloride, 0.1% PEG 8000, pH 7.4. Factor XIa enzymatic activity was determined by addition of the substrate glycine-proline-arginine-7-amido-4-trifluoromethylcoumarin (GPR-AFC) and measurement of the fluorescence at 400/505 nm after a 60 minute incubation at 25° C. The % inhibition for each data point was calculated from the data and analyzed using the log (inhibitor) vs. response four parameters equation to determine the half-maximal inhibitory concentrations (IC50). The IC50 were converted to equilibrium inhibitory constants (Ki) using the Cheng-Prusoff equation.

human Factor XIa, sequence (P03951 388-625): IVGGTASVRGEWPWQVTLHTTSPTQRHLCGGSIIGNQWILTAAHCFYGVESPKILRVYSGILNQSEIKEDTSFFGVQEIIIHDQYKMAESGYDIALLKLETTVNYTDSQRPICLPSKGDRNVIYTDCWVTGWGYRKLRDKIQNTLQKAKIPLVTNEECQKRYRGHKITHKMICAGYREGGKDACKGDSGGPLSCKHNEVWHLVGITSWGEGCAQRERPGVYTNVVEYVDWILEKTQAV
human Factor XIa, sequence (P03951 19-387 partner): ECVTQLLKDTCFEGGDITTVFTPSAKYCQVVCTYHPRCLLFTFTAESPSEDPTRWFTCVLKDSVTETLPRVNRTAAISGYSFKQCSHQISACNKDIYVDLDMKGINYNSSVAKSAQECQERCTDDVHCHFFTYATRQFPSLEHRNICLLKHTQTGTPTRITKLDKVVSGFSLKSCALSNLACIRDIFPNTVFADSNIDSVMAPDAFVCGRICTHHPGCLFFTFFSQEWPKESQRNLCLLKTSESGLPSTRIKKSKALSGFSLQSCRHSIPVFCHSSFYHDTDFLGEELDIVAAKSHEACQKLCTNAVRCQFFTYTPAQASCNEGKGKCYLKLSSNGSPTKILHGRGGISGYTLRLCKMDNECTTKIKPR

With `O=C(O)c1ccc(NC(=O)[C@@H](CC2CC2)c2ccc(-c3c(C(F)F)ccc(Cl)c3F)c[n+]2[O-])cc1` (mixture of isomers) [Example 22, (S)- and (R)-2-(1-((4-carboxyphenyl)amino)-3-cyclopropyl-1-oxopropan-2-yl)-5-(3-chloro-6-(difluoromethyl)-2-fluorophenyl)pyridine 1-oxide], the IC50 stood at 240 nM.

With `O=C(O)c1ccc(NC(=O)C(CC2CC(F)(F)C2)c2ccc(-c3c(OC(F)F)ccc(Cl)c3F)c[n+]2[O-])cc1` (racemic) [Example 49, (S)- and (R)-2-(1-((4-carboxyphenyl)amino)-3-(3,3-difluorocyclobutyl)-1-oxopropan-2-yl)-5-(3-chloro-6-(difluoromethoxy)-2-fluorophenyl)pyridine 1-oxide], the inhibition at 1 µM worked out at 47%. On the same count and under the same terms, the result for `O=C(O)c1ccc(NC(=O)[C@H](CC2CC2)c2ccc(-c3c(OC(F)F)ccc(Cl)c3F)c[n+]2[O-])cc1` (single isomer, unassigned) [Example 1] reads 47%. On to `COc1ccc(Cl)c(F)c1-c1ccc(C(CC2CC2)C(=O)Nc2ccc(C(=O)O)cc2)[n+]([O-])c1` (single isomer, unassigned) [Example 10, (S)- or (R)-4-({2-[5-(3-chloro-2-fluoro-6-methoxyphenyl)-1-oxidopyridin-2-yl]-3-cyclopropylpropanoyl}amino) benzoic acid], for which the inhibition at 1 µM was determined as 13% and the IC50 is over 1000 nM. Take `COc1ccc(Cl)c(F)c1-c1ccc(C(CC2CC2)C(=O)Nc2ccc(C(=O)O)cc2)[n+]([O-])c1` (single isomer, unassigned) [Example 11, (R)- or (S)-4-({2-[5-(3-chloro-2-fluoro-6-methoxyphenyl)-1-oxidopyridin-2-yl]-3-cyclopropylpropanoyl}amino) benzoic acid]: the IC50 came to 36 nM. Take `O=C(O)c1ccc(NC(=O)C(CC2CCC2)c2ccc(-c3c(OC(F)F)ccc(Cl)c3F)c[n+]2[O-])cc1` (single isomer, unassigned) [Example 14, (S)- or (R)-4-[(2-{5-[3-chloro-6-(difluoromethoxy)-2-fluorophenyl]-1-oxidopyridin-2-yl}-3-cyclobutylpropanoyl)amino] benzoic acid]: the IC50 was 47 nM.

Regarding `COC(=O)c1ccc(NC(=O)C(CC2CCC2)c2ccc(-c3c(C(F)F)ccc(Cl)c3F)c[n+]2[O-])cc1` (single isomer, unassigned) [Example 20, (S)- or (R)-methyl 4-[(2-{5-[3-chloro-6-(difluoromethyl)-2-fluorophenyl]-1-oxidopyridin-2-yl}-3-cyclobutylpropanoyl)amino]benzoate], the inhibition at 1 µM is 13% and the IC50 is over 1000 nM.

In the case of `COC(=O)c1ccc(NC(=O)C(CC2CCC2)c2ccc(-c3c(C(F)F)ccc(Cl)c3F)c[n+]2[O-])cc1` (single isomer, unassigned) [Example 21, (R)- or (S)-methyl 4-[(2-{5-[3-chloro-6-(difluoromethyl)-2-fluorophenyl]-1-oxidopyridin-2-yl}-3-cyclobutylpropanoyl)amino]benzoate], the IC50 worked out at 83 nM. Take `O=C(O)c1ccc(NC(=O)C(CC2CC2)c2ccc(-c3cc(Cl)ccc3C(F)(F)F)c[n+]2[O-])cc1` (single isomer, unassigned) [Example 24, (S)- or (R)-2-(1-((4-carboxyphenyl)amino)-3-cyclopropyl-1-oxopropan-2-yl)-5-(5-chloro-2-(trifluoromethyl)phenyl)pyridine 1-oxide]: the inhibition at 1 µM worked out at 33% and the IC50 was over 1000 nM. For `O=C(O)c1ccc(NC(=O)C(CC2CC2)c2ccc(-c3c(C(F)(F)F)ccc(Cl)c3F)c[n+]2[O-])cc1` (single isomer, unassigned) [Example 26, (S)- or (R)-2-(1-((4-carboxyphenyl)amino)-3-cyclopropyl-1-oxopropan-2-yl)-5-(3-chloro-2-fluoro-6-(trifluoromethyl)phenyl)pyridine 1-oxide] the same measures were 39% and over 1000 nM.

Take `O=C(O)c1ccc(NC(=O)C(C[C@H]2CC[C@H](O)CC2)c2ccc(-c3c(C(F)F)ccc(Cl)c3F)c[n+]2[O-])cc1` (single isomer, unassigned) [Example 36, (S)- or (R)-2-(1-((4-carboxyphenyl)amino)-3-((1r,4r)-4-hydroxycyclohexyl)-1-oxopropan-2-yl)-5-(3-chloro-6-(difluoromethyl)-2-fluorophenyl)pyridine 1-oxide]: the IC50 came to 26 nM. As for `C[C@]1(O)CC[C@@H](CC(C(=O)Nc2ccc(C(=O)O)cc2)c2ccc(-c3c(OC(F)F)ccc(Cl)c3F)c[n+]2[O-])CC1` (single isomer, unassigned) [Example 41, 2-(1-((4-carboxyphenyl)amino)-3-((1s,4s)-4-hydroxy-4-methylcyclohexyl)-1-oxopropan-2-yl)-5-(3-chloro-6-(difluoromethoxy)-2-fluorophenyl)pyridine 1-oxide], the inhibition at 1 µM amounted to 49% and the IC50 is over 1000 nM.

Take `C[C@]1(O)CC[C@H](CC(C(=O)Nc2ccc(C(=O)O)cc2)c2ccc(-c3c(OC(F)F)ccc(Cl)c3F)c[n+]2[O-])CC1` (single isomer, unassigned) [Example 42, 2-(1-((4-carboxyphenyl)amino)-3-((1r,4r)-4-hydroxy-4-methylcyclohexyl)-1-oxopropan-2-yl)-5-(3-chloro-6-(difluoromethoxy)-2-fluorophenyl)pyridine 1-oxide]: the IC50 amounted to 227 nM. Still for that read-out and setting: the result for `C[C@]1(O)CC[C@@H](CC(C(=O)Nc2ccc(C(=O)O)cc2)c2ccc(-c3c(C(F)F)ccc(Cl)c3F)c[n+]2[O-])CC1` (single isomer, unassigned) [Example 44, 2-(1-((4-carboxyphenyl)amino)-3-((1s,4s)-4-hydroxy-4-methylcyclohexyl)-1-oxopropan-2-yl)-5-(3-chloro-6-(difluoromethyl)-2-fluorophenyl)pyridine 1-oxide] reads 299 nM.

`C[C@]1(O)CC[C@H](CC(C(=O)Nc2ccc(C(=O)O)cc2)c2ccc(-c3c(C(F)F)ccc(Cl)c3F)c[n+]2[O-])CC1` (single isomer, unassigned) [Example 46, 2-(1-((4-carboxyphenyl)amino)-3-((1r,4r)-4-hydroxy-4-methylcyclohexyl)-1-oxopropan-2-yl)-5-(3-chloro-6-(difluoromethyl)-2-fluorophenyl)pyridine 1-oxide]: the IC50 turned out to be 128 nM. Same read-out and setting: for `CC1CC1C[C@H](C(=O)Nc1ccc(C(=O)O)cc1)c1ccc(-c2c(OC(F)F)ccc(Cl)c2F)c[n+]1[O-]` (single isomer, unassigned) [Example 53] the value was 155 nM; for `CC1CC1C[C@H](C(=O)Nc1ccc(C(=O)O)cc1)c1ccc(-c2c(OC(F)F)ccc(Cl)c2F)c[n+]1[O-]` (single isomer, unassigned) [Example 54], 370 nM.

Consider `CC(C1CC1)C(C(=O)Nc1ccc(C(=O)O)cc1)c1ccc(-c2c(OC(F)F)ccc(Cl)c2F)c[n+]1[O-]` (single isomer, unassigned) [Example 57, 2-(1-((4-carboxyphenyl)amino)-3-cyclopropyl-1-oxobutan-2-yl)-5-(3-chloro-6-(difluoromethoxy)-2-fluorophenyl)pyridine 1-oxide], for which the inhibition at 1 µM amounted to 48% and the IC50 is over 1000 nM. For the molecule `CC(C1CC1)C(C(=O)Nc1ccc(C(=O)O)cc1)c1ccc(-c2c(OC(F)F)ccc(Cl)c2F)c[n+]1[O-]` (single isomer, unassigned) [Example 58, 2-(1-((4-carboxyphenyl)amino)-3-cyclopropyl-1-oxobutan-2-yl)-5-(3-chloro-6-(difluoromethoxy)-2-fluorophenyl)pyridine 1-oxide], the IC50 amounted to 334 nM. On to `CC(C1CC1)C(C(=O)Nc1ccc(C(=O)O)cc1)c1ccc(-c2c(OC(F)F)ccc(Cl)c2F)c[n+]1[O-]` (single isomer, unassigned) [Example 59, 2-(1-((4-carboxyphenyl)amino)-3-cyclopropyl-1-oxobutan-2-yl)-5-(3-chloro-6-(difluoromethoxy)-2-fluorophenyl)pyridine 1-oxide], for which the IC50 is 286 nM. The same measure, in the same setting: for `CC(C1CC1)C(C(=O)Nc1ccc(C(=O)O)cc1)c1ccc(-c2c(OC(F)F)ccc(Cl)c2F)c[n+]1[O-]` (single isomer, unassigned) [Example 60, 2-(1-((4-carboxyphenyl)amino)-3-cyclopropyl-1-oxobutan-2-yl)-5-(3-chloro-6-(difluoromethoxy)-2-fluorophenyl)pyridine 1-oxide] the value was 62 nM; for `CC1CC1C[C@H](C(=O)Nc1ccc(C(=O)O)cc1)c1ccc(-c2c(C(F)F)ccc(Cl)c2F)c[n+]1[O-]` (single isomer, unassigned) [Example 61], 55 nM. The same measure, in the same setting: the result for `O=C(O)c1ccc(NC(=O)C(CC2CC(F)C2)c2ccc(-c3c(C(F)F)ccc(Cl)c3F)c[n+]2[O-])cc1` (single isomer, unassigned) [Example 80, 2-(1-((4-carboxyphenyl)amino)-3-(3-fluorocyclobutyl)-1-oxopropan-2-yl)-5-(3-chloro-6-(difluoromethyl)-2-fluorophenyl)pyridine 1-oxide] reads 484 nM.
